The text below walks through data of US10166216B2 (Rigel Pharmaceuticals, Inc., priority 2006, dated 2019).

Usually IC50 stands for the point on the concentration scale where inhibition reaches its midpoint. High values mean lower potency, low ones higher potency.

In the first assay the target is Axl (Homo sapiens (Human), UniProt P30530). Description: Phospho-Akt in-cell Western assay (Axl-antibody cross-linking stimulation). The assay is classed as cell-based. To be noted: inhibition of Axl activity, Hela cells, phospho-Akt readout; Table 1, formula (Ia1). The method, boiled down: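 HeLa cells on poly-L-lysine, starved 24 hrs with Axl/Fc, pre-treated with compound 1 hr at 37° C., then stimulated 5 min with Axl primary/secondary antibody cluster. Fixed cells probed for phospho-Akt by chemiluminescent in-cell Western; signal normalized to crystal violet cell number.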
Chain of Axl (P30530 26-894): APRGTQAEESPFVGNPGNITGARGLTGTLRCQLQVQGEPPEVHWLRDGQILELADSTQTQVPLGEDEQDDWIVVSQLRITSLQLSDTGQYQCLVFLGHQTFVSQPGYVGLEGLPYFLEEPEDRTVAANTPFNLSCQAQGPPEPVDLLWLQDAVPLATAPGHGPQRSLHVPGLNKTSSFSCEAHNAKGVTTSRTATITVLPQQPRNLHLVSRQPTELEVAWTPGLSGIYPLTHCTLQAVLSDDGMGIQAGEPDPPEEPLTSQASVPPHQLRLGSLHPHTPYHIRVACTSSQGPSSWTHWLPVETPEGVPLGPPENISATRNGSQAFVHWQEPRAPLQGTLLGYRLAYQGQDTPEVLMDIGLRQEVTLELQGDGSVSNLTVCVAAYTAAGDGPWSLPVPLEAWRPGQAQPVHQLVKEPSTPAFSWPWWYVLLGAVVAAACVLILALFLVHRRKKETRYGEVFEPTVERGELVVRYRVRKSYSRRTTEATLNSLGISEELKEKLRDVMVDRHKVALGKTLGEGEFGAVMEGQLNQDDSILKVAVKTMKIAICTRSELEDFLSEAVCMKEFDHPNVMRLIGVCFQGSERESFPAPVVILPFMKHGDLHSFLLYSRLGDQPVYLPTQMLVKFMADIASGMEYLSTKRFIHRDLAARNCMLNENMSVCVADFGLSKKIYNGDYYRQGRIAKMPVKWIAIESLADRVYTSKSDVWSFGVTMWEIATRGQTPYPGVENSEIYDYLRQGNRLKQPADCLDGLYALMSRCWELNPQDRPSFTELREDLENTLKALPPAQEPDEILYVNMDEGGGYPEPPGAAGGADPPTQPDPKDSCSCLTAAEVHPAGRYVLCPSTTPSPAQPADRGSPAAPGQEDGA
The molecule `Nc1nc(Nc2ccc(OCCN3CCCC3)cc2)nn1-c1nc(Cl)nc2cc(Cl)sc12` [Compound 175, 1-(2,6-dichlorothieno[3,2-d]pyrimidin-4-yl)-N^3-(4-(2-pyrrolidin-1-ylethoxy)phenyl)-1H-1,2,4-triazole-3,5-diamine] showed an IC50 below 1000 nM.
The molecule `Nc1nc(Nc2ccc(OCCN3CCCC3)cc2)nn1-c1nc(Cl)nc2sccc12` [Compound 176, 1-(2-chlorothieno[2,3-d]pyrimidin-4-yl)-N^3-(4-(2-pyrrolidin-1-ylethoxy)phenyl)-1H-1,2,4-triazole-3,5-diamine] displayed an IC50 below 1000 nM.
Turning to `Nc1nc(Nc2ccc(OCCN3CCCC3)cc2)nn1-c1nc(Cl)nc2ccsc12` [Compound 177, 1-(2-chlorothieno[3,2-d]pyrimidin-4-yl)-N^3-(4-(2-pyrrolidin-1-ylethoxy)phenyl)-1H-1,2,4-triazole-3,5-diamine], the IC50 is below 1000 nM.

The assay is the same for the next values; noted with them: inhibition of Axl activity, Hela cells, phospho-Akt readout; Table 4, formula (Ib2).
Turning to `Nc1nc(Nc2ccc(N3CCN(C4CCCC4)CC3)c(F)c2)n(-c2nc3ccccc3c3ccccc23)n1` [Compound 205, 1-(phenanthridin-6-yl)-N^5-(3-fluoro-4-(4-cyclopentylpiperazin-1-yl)phenyl)-1H-1,2,4-triazole-3,5-diamine], the half-maximal inhibitory concentration (IC50) is below 1000 nM.

The assay is the same for the next values; noted with them: inhibition of Axl activity, Hela cells, phospho-Akt readout; Table 5, formula (Ia3).
The molecule `COc1cc2ncnc(-n3nc(Nc4ccc(CN5CCN(C)CC5)cc4)nc3N)c2cc1OC` [Compound 173, 1-(6,7-dimethoxyquinazolin-4-yl)-N^3-(4-((4-methylpiperazin-1-yl)methyl)phenyl)-1H-1,2,4-triazole-3,5-diamine] showed a concentration for half-maximal inhibition (IC50) below 1000 nM.
Molecule `COc1cc2ccnc(-n3nc(Nc4ccc(C5CCN(C)CC5)cc4)nc3N)c2cc1OC` [Compound 174, 1-(6,7-dimethoxyisoquinolin-1-yl)-N^3-(4-(1-methylpiperidin-4-yl)phenyl)-1H-1,2,4-triazole-3,5-diamine] had an IC50 below 1000 nM.

The same assay, now with this note: inhibition of Axl activity, phospho-Akt in-cell Western assay.
Consider `Nc1nc(Nc2ccc(N3CCN([C@H]4C[C@@H]5CC[C@H]4C5)CC3)cc2)nn1-c1nc(Cl)nc2ccsc12` [Compound 179, 1-(2-chlorothieno[3,2-d]pyrimidin-4-yl)-N^3-(4-(4-((1S,2S,4R)-bicyclo[2.2.1]heptan-2-yl)-piperazin-1-yl)phenyl)-1H-1,2,4-triazole-3,5-diamine], for which the IC50 is below 1000 nM.
`COc1cc2cnc(-n3nc(Nc4ccc(N5CCN(C)CC5)cc4)nc3N)nc2cc1OC` [Compound 180, 1-(6,7-dimethoxyquinazolin-2-yl)-N^3-(4-(4-methylpiperazin-1-yl)phenyl)-1H-1,2,4-triazole-3,5-diamine] had a 50% inhibitory concentration (IC50) below 1000 nM.
`COc1cc2cnc(-n3nc(Nc4ccc(N5CCN(C6CCCCC6)CC5)c(F)c4)nc3N)nc2cc1OC` [Compound 181, 1-(6,7-dimethoxyquinazolin-2-yl)-N^3-(3-fluoro-4-(4-cyclohexylpiperazin-1-yl)phenyl)-1H-1,2,4-triazole-3,5-diamine] gave an IC50 below 1000 nM.
As for `Nc1nc(Nc2ccc(N3CCN(C4CC5CCC4C5)CC3)cc2)nn1-c1ncnc2c1sc1ncccc12` (stereo not shown) [Compound 184, 1-(pyrido[2,3-b]pyrimido[4,5-d]thiophene-4-yl)-N^3-(4-(4-(bicyclo[2.2.1]heptan-2-yl)-piperazin-1-yl)phenyl)-1H-1,2,4-triazole-3,5-diamine], the IC50 was below 1000 nM.
As to `Nc1nc(Nc2ccc(N3CCN(C4CC5CCC4C5)CC3)cc2)nn1-c1ncnc2scc(-c3cccs3)c12` (stereo not shown) [Compound 185, 1-(5-(thiophen-2-yl)thieno[2,3-d]pyrimidin-4-yl)-N^3-(4-(4-(bicyclo[2.2.1]heptan-2-yl)-piperazin-1-yl)phenyl)-1H-1,2,4-triazole-3,5-diamine], the IC50 was above 20000 nM.
Turning to `Nc1nc(Nc2ccc(N3CCN(C4CC5CCC4C5)CC3)cc2)nn1-c1ncnc2cc(-c3ccc(Cl)cc3)sc12` (stereo not shown) [Compound 186, 1-(6-(4-chlorophenyl)thieno[3,2-d]pyrimidin-4-yl)-N^3-(4-(4-(bicyclo[2.2.1]heptan-2-yl)-piperazin-1-yl)phenyl)-1H-1,2,4-triazole-3,5-diamine], the IC50 was above 20000 nM.
For the molecule `CC(C)(C)c1cc2ncnc(-n3nc(Nc4ccc(N5CCN(C6CC7CCC6C7)CC5)cc4)nc3N)c2s1` (stereo not shown) [Compound 187, 1-(6-(1,1-dimethylethyl)thieno[3,2-d]pyrimidin-4-yl)-N^3-(4-(4-(bicyclo[2.2.1]heptan-2-yl)-piperazin-1-yl)phenyl)-1H-1,2,4-triazole-3,5-diamine], the IC50 is below 1000 nM.
On to `Cc1csc2c(-n3nc(Nc4ccc(N5CCN([C@H]6C[C@@H]7CC[C@H]6C7)CC5)cc4)nc3N)ncnc12` [Compound 188, 1-(7-methylthieno[3,2-d]pyrimidin-4-yl)-N^3-(4-(4-((1S,2S,4R)-bicyclo[2.2.1]heptan-2-yl)-piperazin-1-yl)phenyl)-1H-1,2,4-triazole-3,5-diamine], for which the IC50 was below 1000 nM.
For the molecule `Nc1nc(Nc2ccc(N3CCN([C@H]4C[C@@H]5CC[C@H]4C5)CC3)cc2)nn1-c1ncnc2ccsc12` [Compound 189, 1-(thieno[3,2-d]pyrimidin-4-yl)-N^3-(4-(4-((1S,2S,4R)-bicyclo[2.2.1]heptan-2-yl)-piperazin-1-yl)phenyl)-1H-1,2,4-triazole-3,5-diamine], the IC50 was below 1000 nM.
Molecule `Nc1nc(Nc2ccc(N3CCN([C@H]4C[C@@H]5CC[C@H]4C5)CC3)cc2)nn1-c1ncnc2sccc12` [Compound 190, 1-(thieno[2,3-d]pyrimidin-4-yl)-N^3-(4-(4-((1S,2S,4R)-bicyclo[2.2.1]heptan-2-yl)-piperazin-1-yl)phenyl)-1H-1,2,4-triazole-3,5-diamine] came in with an IC50 below 1000 nM.
The molecule `Cc1csc2ncnc(-n3nc(Nc4ccc(N5CCN([C@H]6C[C@@H]7CC[C@H]6C7)CC5)cc4)nc3N)c12` [Compound 191, 1-(5-methylthieno[2,3-d]pyrimidin-4-yl)-N^3-(4-(4-((1S,2S,4R)-bicyclo[2.2.1]heptan-2-yl)-piperazin-1-yl)phenyl)-1H-1,2,4-triazole-3,5-diamine] gave an IC50 of 1000 to 10000 nM.
The same measure, in the same setting: next, `Nc1nc(Nc2ccc(N3CCN(C4CCCC4)CC3)c(F)c2)nn1-c1nc2ccccc2c2ccccc12` [Compound 192, 1-(phenanthridin-6-yl)-N^3-(3-fluoro-4-(4-cyclopentylpiperazin-1-yl)phenyl)-1H-1,2,4-triazole-3,5-diamine]: below 1000 nM.
`Cc1csc2c(-n3nc(Nc4ccc(N5CCN(C6CC7CCC6C7)CC5)c(F)c4)nc3N)ncnc12` (stereo not shown) [Compound 194] came in with a half-maximal inhibitory concentration (IC50) below 1000 nM.
Molecule `Nc1nc(Nc2ccc(N3CCN(C4CC5CCC4C5)CC3)c(F)c2)nn1-c1ncnc2ccsc12` (stereo not shown) [Compound 195, 1-(thieno[3,2-d]pyrimdin-4-yl)-N^3-(3-fluoro-4-(4-(bicyclo[2.2.1]heptan-2-yl)-piperazin-1-yl)phenyl)-1H-1,2,4-triazole-3,5-diamine] showed a half-inhibitory concentration (IC50) below 1000 nM.
Take `Nc1nc(Nc2ccc(N3CCN(C4CC5CCC4C5)CC3)c(F)c2)nn1-c1ncnc2sccc12` (stereo not shown) [Compound 196, 1-(thieno[2,3-d]pyrimidin-4-yl)-N^3-(3-fluoro-4-(4-(bicyclo[2.2.1]heptan-2-yl)-piperazin-1-yl)phenyl)-1H-1,2,4-triazole-3,5-diamine]: the 50% inhibitory concentration (IC50) is below 1000 nM.
As to `Nc1nc(Nc2ccc(N3CCN(C4CC5CCC4C5)CC3)c(F)c2)nn1-c1ncnc2ccc(F)cc12` (stereo not shown) [Compound 197, 1-(6-fluoroquinazolin-4-yl)-N^3-(3-fluoro-4-(4-(bicyclo[2.2.1]heptan-2-yl)-piperazin-1-yl)phenyl)-1H-1,2,4-triazole-3,5-diamine], the concentration for half-maximal inhibition (IC50) is below 1000 nM.
Molecule `Cc1nnc(-n2nc(Nc3ccc(N4CCN(C5CC6CCC5C6)CC4)cc3)nc2N)c2sccc12` (stereo not shown) [Compound 198, 1-(4-methylthieno[3,2-d]pyridazin-7-yl)-N^3-(4-(4-(bicyclo[2.2.1]heptan-2-yl)-piperazin-1-yl)phenyl)-1H-1,2,4-triazole-3,5-diamine] yielded an IC50 below 1000 nM.
In turn, `Cc1cc(Nc2nc(N)n(-c3ncnc4c(C)csc34)n2)ccc1N1CCN(C2CC3CCC2C3)CC1` (stereo not shown) [Compound 199, 1-(7-methylthieno[3,2-d]pyrimidin-4-yl)-N^3-(3-methyl-4-(4-(bicyclo[2.2.1]heptan-2-yl)-piperazin-1-yl)phenyl)-1H-1,2,4-triazole-3,5-diamine] displayed a concentration for half-maximal inhibition (IC50) below 1000 nM.
For `Cc1cc(N2CCN(C3CC4CCC3C4)CC2)ccc1Nc1nc(N)n(-c2nc(Cl)nc3c(C)csc23)n1` (stereo not shown) [Compound 200, 1-(7-methyl-2-chlorothieno[3,2-d]pyrimidin-4-yl)-N^3-(2-methyl-4-(4-(bicyclo[2.2.1]heptan-2-yl)-piperazin-1-yl)phenyl)-1H-1,2,4-triazole-3,5-diamine], the IC50 lay within 1000 to 10000 nM.
`Cc1csc2c(-n3nc(Nc4ccc(N5CCN([C@H]6C[C@@H]7CC[C@H]6C7)CC5)c(F)c4)nc3N)ncnc12` [Compound 201, 1-(7-methylthieno[3,2-d]pyrimidin-4-yl)-N^3-(3-fluoro-4-(4-((1S,2S,4R)-bicyclo[2.2.1]heptan-2-yl)-piperazin-1-yl)phenyl)-1H-1,2,4-triazole-3,5-diamine] showed an IC50 below 1000 nM.
On the same count and under the same terms, in the case of `Cc1cc(N2CCN(C3CC4CCC3C4)CC2)ccc1Nc1nc(N)n(-c2ncnc3c(C)csc23)n1` (stereo not shown) [Compound 202, 1-(7-methylthieno[3,2-d]pyrimidin-4-yl)-N^3-(2-methyl-4-(4-(bicyclo[2.2.1]heptan-2-yl)-piperazin-1-yl)phenyl)-1H-1,2,4-triazole-3,5-diamine] it was below 1000 nM; in that of `Cc1nnc(-n2nc(Nc3ccc(N4CCN(C5CC6CCC5C6)CC4)c(F)c3)nc2N)c2sccc12` (stereo not shown) [Compound 203, 1-(4-methylthieno[3,2-d]pyridazin-7-yl)-N^3-(3-fluoro-4-(4-(bicyclo[2.2.1]heptan-2-yl)-piperazin-1-yl)phenyl)-1H-1,2,4-triazole-3,5-diamine], below 1000 nM.
